Test results: US20080096967A1, “Formulations for Injection of Catecholic Butanes, Including Ndga Compounds, Into Animals” (priority 2005, published 2008)

What was measured:
[1] = Compatibility of IV tubing for delivery of M4N (visual inspection and HPLC); settings: PTFE and fluorelastomer, polypropylene, FEP, polyethylene, platinum cured silicone (small size)
Method: In this experiment, various types of tubing were tested for compatibility and for optimizing intravenous delivery of M4N. The tests on compatibility were based on visual inspection and HPLC (high pressure liquid chromatography) analysis.
The visual inspection was conducted as follows: About 5 mL of a formulation to be tested (“formulated material”) were passed through a tubing of about 20 cm in length. The formulated material was kept inside the tube for about 24 hr at room temperature (25° C.). The formulated material was then circulated several times (about 5 times, for example) through the tubing and was collected in a beaker or a collection tube. The formulated material was carefully inspected for precipitates or particulates present, including by holding the beaker or collection tube against a white background followed by a dark background.
The compatibility test using HPLC analysis varied in the methodology depending on the tubing being tested, the length of time and the purpose of the tubing. This test measured the amount of M4N in solution before and after circulation through different tubing.

[2] = Solubility of M4N in formulations containing modified celluloses (visual inspection); format: physicochemical; on Dissolution After Rotation: key: N represents 'No'; Y represents 'Yes.'
Method: A 10 mL solution of 50% HP-β-CD (w/v) and 0.5% hydroxypropyl methylcellulose (“HPMC”) (w/v) for use as a solubilizing agent and/or excipient was made as follows: 5.9 mL of water suitable for injection into animals (“WFI”) were placed in a glass beaker containing a stir bar. The beaker was placed on a magnetic plate, and the stir bar was set to stir at medium speed. Five grams of HP-β-CD were added slowly to the stirring WFI, using a spatula to direct the HP-β-CD to the center of the beaker. The HP-β-CD solution was stirred for about 24 hr or until the HP-β-CD was dissolved completely upon visual inspection. The resulting solution measured about 9.4 mL. About 0.6 mL of WFI was added to this resulting solution to reach 10 mL, to produce a solution of 50% HP-β-CD (w/v). Fifty milligrams of HPMC were added to the 50% HP-β-CD solution and stirred for about 1 hr or until the HPMC was dissolved upon visual inspection. The final solution was stirred for about 1 hr and was then stored at room temperature, protected from light. This method of making modified cyclodextrins with modified celluloses may be scaled up or down to obtain the desired volume or concentration of HP-β-CD/HPMC solution. Other modified cyclodextrin/modified cellulose solutions may be similarly made, for example, by substituting HP-β-CD with other modified cyclodextrins, or HPMC with other modified celluloses, in the process described above.
A 10 mL solution of M4N at a concentration of about 10 mg/mL in 50% HP-β-CD/0.5% HPMC was made as follows. About 10 mL of the 50% HP-β-CD/0.5% HPMC solution were added to a glass beaker containing a stir bar. The beaker was placed on a magnetic plate and the stir bar was set to stir at medium speed. About 100 mg of M4N were slowly added to the 50% HP-β-CD/0.5% HPMC in the center of the beaker with the aid of a spatula. The M4N/50% HP-β-CD/0.5% HPMC mixture was stirred for 24 hr or until all M4N was uniformly suspended without any clumps being present. The M4N/50% HP-β-CD/0.5% HPMC mixture was heated at about 90° C. for about 30 min. (or longer if a larger volume of solution was desired, for example, 1 hr at 90° C. for 500 mL of the M4N/50% HP-β-CD/0.5% HPMC mixture), or longer as needed to ensure complete dissolution of M4N. […] The final M4N/50% HP-β-CD/0.5% HPMC solution was stored at room temperature and was kept protected from light.
A 10 mL solution of 5% ethylcellulose (“EC”) in ethanol (w/v) for use as a solubilizing agent and/or excipient was made as follows: 10 mL of 100% ethyl alcohol (“EtOH”) were placed in a glass beaker containing a stir bar, covered by a round Teflon® cover. The beaker was placed on a magnetic plate, and the stir bar was set to stir at medium speed. Five hundred (500) milligrams of EC was added slowly to the stirring ethanol, using a spatula to direct the EC to the center of the beaker so as to prevent EC powder from sticking to the beaker wall. The EC solution was stirred for about 2 hr or until the EC was dissolved completely upon visual inspection. The final solution was stored at room temperature, and was protected from light.
A 10 mL solution of M4N at a concentration of about 20 mg/mL in 5% EC (w/v) (the “EC formulation”) was made as follows. About 10 mL of 5% EC formulation, made as described above, were added to a glass beaker containing a stir bar. The beaker was placed on a magnetic plate and the stir bar was set to stir at medium speed, and covered with a round Teflon® cover. About 200 mg of M4N were slowly added to the 5% EC formulation in the center of the beaker with the aid of a spatula to prevent M4N from sticking to the beaker wall. The M4N/EC mixture was stirred for 2 hr or until all M4N had dissolved or was uniformly suspended without any clumps being present. The M4N/EC mixture was heated at about 60° C. for about 30 min. […]

[3] = 50% HP-β-CD, 0.5% HPMC, M4N 1 mg/mL
[4] = 50% HP-β-CD, 0.5% HPMC, M4N 10 mg/mL
[5] = EC 5% (w/v) in EtOH, M4N 1 mg/mL
[6] = EC 5% (w/v) in EtOH, M4N 10 mg/mL
[7] = EC 5% (w/v) in EtOH, M4N 20 mg/mL

Compound: COc1ccc(C[C@@H](C)[C@@H](C)Cc2ccc(OC)c(OC)c2)cc1OC [Formulation M4N, meso-1,4-bis(3,4-dimethoxyphenyl)-2,3-dimethylbutane]
- compatibility of tubing for delivery of M4N (threshold about 90% of M4N remaining in solution) [1]: compatible
- Dissolution After Rotation ([2]; 2.3% HPMC, M4N 1 mg/mL): N
- Dissolution After Heating ([2]; 2.3% HPMC, M4N 1 mg/mL, 90° C.): N at 90 °C
- Dissolution After Rotation ([2]; 2.3% HPMC, M4N 10 mg/mL): N
- Dissolution After Heating ([2]; 2.3% HPMC, M4N 10 mg/mL, 90° C.): N at 90 °C
- Dissolution After Rotation ([2]; 2.3% HPMC, M4N 50 mg/mL): N
- Dissolution After Heating ([2]; 2.3% HPMC, M4N 50 mg/mL, 90° C.): N at 90 °C
- Dissolution After Rotation ([2]; 2.3% HPMC, M4N 100 mg/mL): N
- Dissolution After Heating ([2]; 2.3% HPMC, M4N 100 mg/mL, 90° C.): N at 90 °C
- Dissolution After Rotation [2, 3]: N
- Stability Time at Room Temperature [2, 3]: >7 days
- Dissolution After Heating ([2]; 50% HP-β-CD, 0.5% HPMC, M4N 1 mg/mL, 90° C.): Y at 90 °C
- Dissolution After Rotation [2, 4]: N
- Stability Time at Room Temperature [2, 4]: >7 days
- Dissolution After Heating ([2]; 50% HP-β-CD, 0.5% HPMC, M4N 10 mg/mL, 90° C.): Y at 90 °C
- Dissolution After Rotation ([2]; 50% HP-β-CD, 0.5% HPMC, M4N 50 mg/mL): N
- Dissolution After Heating ([2]; 50% HP-β-CD, 0.5% HPMC, M4N 50 mg/mL, 90° C.): N at 90 °C
- Dissolution After Rotation ([2]; CMC (High Viscosity) 1% (w/v), M4N 1 mg/mL): N
- Dissolution After Heating ([2]; CMC (High Viscosity) 1% (w/v), M4N 1 mg/mL, 90° C.): N at 90 °C
- Dissolution After Rotation ([2]; CMC (High Viscosity) 1% (w/v), M4N 10 mg/mL): N
- Dissolution After Heating ([2]; CMC (High Viscosity) 1% (w/v), M4N 10 mg/mL, 90° C.): N at 90 °C
- Dissolution After Rotation ([2]; CMC (Low Viscosity) 4%, M4N 1 mg/mL): N
- Dissolution After Heating ([2]; CMC (Low Viscosity) 4%, M4N 1 mg/mL, 90° C.): N at 90 °C
- Dissolution After Rotation ([2]; CMC (Low Viscosity) 4%, M4N 10 mg/mL): N
- Dissolution After Heating ([2]; CMC (Low Viscosity) 4%, M4N 10 mg/mL, 90° C.): N at 90 °C
- Dissolution After Rotation [2, 5]: Y
- Stability Time at Room Temperature [2, 5]: >3 days
- Dissolution After Rotation [2, 6]: N
- Stability Time at Room Temperature [2, 6]: >3 days
- Dissolution After Heating ([2]; EC 5% (w/v) in EtOH, M4N 10 mg/mL, 40° C.): Y at 40 °C
- Dissolution After Rotation [2, 7]: N
- Stability Time at Room Temperature [2, 7]: >3 days
- Dissolution After Heating ([2]; EC 5% (w/v) in EtOH, M4N 20 mg/mL, 60° C.): Y at 60 °C
- Dissolution After Rotation ([2]; EC 5% (w/v) in EtOH, M4N 30 mg/mL): N
- Dissolution After Heating ([2]; EC 5% (w/v) in EtOH, M4N 30 mg/mL, 60° C.): Y at 60 °C
- Dissolution After Rotation ([2]; EC 5% (w/v) in EtOH, M4N 50 mg/mL): N
- Dissolution After Heating ([2]; EC 5% (w/v) in EtOH, M4N 50 mg/mL, 90° C.): Y at 90 °C
- Dissolution After Rotation ([2]; EC 5% (w/v) in EtOH, M4N 100 mg/mL): N
- Dissolution After Heating ([2]; EC 5% (w/v) in EtOH, M4N 100 mg/mL, 90° C.): Y at 90 °C
- Stability at Room Temperature ([2]; M4N 1 mg/mL and 10 mg/mL in 50% HP-β-CD/0.5% HPMC, heated at 90° C., after cool down): greater than 7 days
- stable at room temperature ([2]; M4N 1 mg/mL in EC formulation (5% EC in EtOH), without heat): greater than 3 days
- stable at room temperature ([2]; M4N 10 mg/mL in EC formulation, dissolved at 40° C.): greater than 3 days
- stable at room temperature ([2]; M4N 20 mg/mL in EC formulation, dissolved at 60° C.): greater than 3 days
- solution upon cooling ([2]; M4N 30 mg/mL in EC formulation, soluble at 60° C.): did not remain in solution upon cooling
- dissolution ([2]; M4N 50 mg/mL in 50% HP-β-CD/0.5% HPMC at 90° C.): did not dissolve
- solution upon cooling ([2]; M4N 50 mg/mL or 100 mg/mL in EC formulation, soluble at 90° C.): did not remain in solution upon cooling
- Dissolution After Rotation ([2]; MC (Low viscosity) 2% (w/v), M4N 1 mg/mL): N
- Dissolution After Heating ([2]; MC (Low viscosity) 2% (w/v), M4N 1 mg/mL, 90° C.): N at 90 °C
- Dissolution After Rotation ([2]; MC (Low viscosity) 2% (w/v), M4N 10 mg/mL): N
- Dissolution After Heating ([2]; MC (Low viscosity) 2% (w/v), M4N 10 mg/mL, 90° C.): N at 90 °C
